Experimental data published in ChEMBL document CHEMBL1127663, “High-affinity and potent, water-soluble 5-amino-1,4-benzodiazepine CCKB/gastrin receptor antagonists containing a cationic solubilizing group” (J Med Chem, 1994).

Experiments:
[1] = biological target: T1, Cholecystokinin receptor type A (Rattus norvegicus, UniProt P30551); assay: Binding activity against Cholecystokinin type A receptor from rat pancreas using [125]BH CCK-8s as radioligand.
T1 sequence (P30551 whole entry): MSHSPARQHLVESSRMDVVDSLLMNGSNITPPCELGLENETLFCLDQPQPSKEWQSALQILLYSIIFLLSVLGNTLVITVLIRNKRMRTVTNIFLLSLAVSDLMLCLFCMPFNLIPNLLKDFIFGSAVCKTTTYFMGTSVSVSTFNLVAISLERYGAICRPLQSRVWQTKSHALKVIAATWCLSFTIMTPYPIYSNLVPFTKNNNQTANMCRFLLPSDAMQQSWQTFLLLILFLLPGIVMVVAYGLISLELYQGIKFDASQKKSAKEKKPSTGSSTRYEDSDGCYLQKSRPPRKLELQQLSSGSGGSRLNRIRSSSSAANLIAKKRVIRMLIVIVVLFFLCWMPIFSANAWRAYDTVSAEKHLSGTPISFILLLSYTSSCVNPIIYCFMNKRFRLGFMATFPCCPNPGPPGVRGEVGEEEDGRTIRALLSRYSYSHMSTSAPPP

[2] = Binding activity against Cholecystokinin type B receptor from guinea pig cortex using [125]BH CCK-8s as radioligand.

SMILES | IC50 [1] | IC50 [2]
Cc1cccc(NC(=O)N[C@H]2N=C(N3CC4CCC(CC4)C3)c3ccccc3N(C)C2=O)c1 | 6.5 nM | –
Cc1cccc(NC(=O)NC2N=C(N3CC4CCC(CC4)C3)c3ccccc3N(C)C2=O)c1 (centres undefined) | 19.9 nM | –
Cc1cccc(NC(=O)NC2N=C(N3CCCCC3)c3ccccc3N(C)C2=O)c1 (centres undefined) | 17 nM | –
Cc1cccc(NC(=O)N[C@@H]2N=C(C3CCCCC3)c3ccccc3N(C)C2=O)c1 | – | 0.28 nM
